Reference: ChEMBL document CHEMBL1201862, “PubChem BioAssay data set” (2004)
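96-well plates; 48 h exposure; 5 concentrations. Endpoints by linear interpolation between flanking doses. Not reached: highest tested concentration assigned. GI50: concentration for 50% inhibition of growth.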 Activity calls are given as the source filed them. Cut-off read from the data, not from the text of the source: active = GI50 up to about 1.1 µM and inactive = higher.

Legend:
Assay in all cases: NCI anticancer screen, dose series, 48 h
[1] = test system: T47D
[2] = test system: 786-0
[3] = test system: MDA-MB-231
[4] = test system: HOP-62
[5] = test system: SK-MEL-2
[6] = test system: HOP-92
[7] = test system: SNB-75
[8] = test system: UACC-62
[9] = test system: CAKI-1
[10] = test system: HL-60
[11] = test system: TK-10
[12] = test system: OVCAR-5
[13] = test system: SF-268
[14] = test system: PC-3
[15] = test system: HCT-15
[16] = test system: SNB-19
[17] = test system: NCI-H522
[18] = test system: CCRF-CEM
[19] = test system: Hs-578T
[20] = test system: SN12C

## COc1ccc2c(c1)CC[C@@H]1[C@@H]2CC[C@]2(C)C(=O)/C(=C/c3cc(OC)c(OC)c(OC)c3)C[C@@H]12
[1]
  GI50: 67 µM (inactive)
[2]
  GI50: 19.2 µM (inactive)
[3]
  GI50: 18.1 µM (inactive)
[4]
  GI50: 17 µM (inactive)
[5]
  GI50: 19 µM (inactive)
[6]
  GI50: 22.2 µM (inactive)
[7]
  GI50: 19.4 µM (inactive)
[8]
  GI50: 30.2 µM (inactive)
[9]
  GI50: 27.7 µM (inactive)
[10]
  GI50: > 100 µM (inactive)
[11]
  GI50: 19.4 µM (inactive)
[12]
  GI50: 24.4 µM (inactive)
[13]
  GI50: 0.0149 µM (active)
[14]
  GI50: 14 µM (inactive)
[15]
  GI50: 70 µM
[16]
  GI50: 52.6 µM (inactive)

## COc1cc(C2SCC(=O)N2c2cc(Cl)c(Cl)cc2Cl)cc(OC)c1OC (centres undefined)
[2]
  GI50: 38.2 µM (inactive)
[3]
  GI50: > 100 µM (inactive)
[17]
  GI50: 46 µM (inactive)
[5]
  GI50: 63 µM (inactive)
[6]
  GI50: 28.6 µM (inactive)
[8]
  GI50: 22.2 µM (inactive)
[9]
  GI50: 28.7 µM (inactive)
[10]
  GI50: 28.2 µM (inactive)
[11]
  GI50: > 100 µM (inactive)
[12]
  GI50: > 100 µM (inactive)
[13]
  GI50: 90.2 µM (inactive)
[18]
  GI50: 25.4 µM (inactive)
[14]
  GI50: 62.8 µM (inactive)
[15]
  GI50: 29.7 µM
[19]
  GI50: 99.8 µM (inactive)
[16]
  GI50: 51.8 µM (inactive)
[20]
  GI50: 36.5 µM (inactive)

## Cc1c(C(=O)C/C(=N/NC(=O)CC#N)C(N)=O)[n+]([O-])c2ccccc2[n+]1[O-]
[2]
  GI50: > 100 µM (inactive)
[4]
  GI50: > 100 µM (inactive)
[17]
  GI50: 19.8 µM (inactive)
[5]
  GI50: > 100 µM (inactive)
[6]
  GI50: > 100 µM (inactive)
[7]
  GI50: > 100 µM (inactive)
[8]
  GI50: 33 µM (inactive)
[9]
  GI50: > 100 µM (inactive)
[10]
  GI50: 17.7 µM (inactive)
[11]
  GI50: > 100 µM (inactive)
[12]
  GI50: > 100 µM (inactive)
[13]
  GI50: 34.3 µM (inactive)
[18]
  GI50: 35.1 µM (inactive)
[15]
  GI50: 25.9 µM
[16]
  GI50: > 100 µM (inactive)
[20]
  GI50: 30.2 µM (inactive)

## O=C(c1cccs1)N(C(=S)N1CCN(c2ccccc2)CC1)C1CCCCC1
[2]
  GI50: > 100 µM (inactive)
[4]
  GI50: > 100 µM (inactive)
[17]
  GI50: > 100 µM (inactive)
[5]
  GI50: > 100 µM (inactive)
[6]
  GI50: > 100 µM (inactive)
[7]
  GI50: > 100 µM (inactive)
[8]
  GI50: > 100 µM (inactive)
[9]
  GI50: > 100 µM (inactive)
[10]
  GI50: 22.1 µM (inactive)
[11]
  GI50: > 100 µM (inactive)
[12]
  GI50: > 100 µM (inactive)
[13]
  GI50: > 100 µM (inactive)
[18]
  GI50: > 100 µM (inactive)
[15]
  GI50: > 100 µM
[16]
  GI50: > 100 µM (inactive)
[20]
  GI50: > 100 µM (inactive)

## O=C(O)CN1CCSc2ccccc2CN(CC(=O)O)CCSc2ccccc2C1
[2]
  GI50: > 100 µM (inactive)
[4]
  GI50: > 100 µM (inactive)
[17]
  GI50: > 100 µM (inactive)
[5]
  GI50: > 100 µM (inactive)
[6]
  GI50: > 100 µM (inactive)
[7]
  GI50: > 100 µM (inactive)
[8]
  GI50: > 100 µM (inactive)
[9]
  GI50: > 100 µM (inactive)
[10]
  GI50: > 100 µM (inactive)
[11]
  GI50: > 100 µM (inactive)
[12]
  GI50: > 100 µM (inactive)
[13]
  GI50: > 100 µM (inactive)
[18]
  GI50: > 100 µM (inactive)
[15]
  GI50: > 100 µM
[16]
  GI50: > 100 µM (inactive)
[20]
  GI50: > 100 µM (inactive)

## COc1ccc(C2OC[C@H]3O[C@@H](OCc4ccccc4)[C@H](O)[C@@H](O)[C@@H]3O2)cc1 (some centres undefined)
[3]
  GI50: > 100 µM (inactive)
[4]
  GI50: > 100 µM (inactive)
[5]
  GI50: > 100 µM (inactive)
[6]
  GI50: 35.8 µM (inactive)
[7]
  GI50: 2.29 µM (inactive)
[8]
  GI50: > 100 µM (inactive)
[9]
  GI50: > 100 µM (inactive)
[11]
  GI50: > 100 µM (inactive)
[12]
  GI50: > 100 µM (inactive)
[13]
  GI50: > 100 µM (inactive)
[18]
  GI50: 52.7 µM (inactive)
[14]
  GI50: 99.8 µM (inactive)
[15]
  GI50: > 100 µM
[19]
  GI50: 55.5 µM (inactive)
[16]
  GI50: > 100 µM (inactive)
[20]
  GI50: > 100 µM (inactive)

## CN1CCOC(c2ccc(Cl)cc2)O1 (centres undefined)
[3]
  GI50: > 100 µM (inactive)
[4]
  GI50: > 100 µM (inactive)
[17]
  GI50: > 100 µM (inactive)
[5]
  GI50: > 100 µM (inactive)
[6]
  GI50: > 100 µM (inactive)
[7]
  GI50: > 100 µM (inactive)
[8]
  GI50: > 100 µM (inactive)
[9]
  GI50: > 100 µM (inactive)
[11]
  GI50: > 100 µM (inactive)
[12]
  GI50: > 100 µM (inactive)
[13]
  GI50: > 100 µM (inactive)
[18]
  GI50: > 100 µM (inactive)
[14]
  GI50: > 100 µM (inactive)
[15]
  GI50: > 100 µM
[16]
  GI50: > 100 µM (inactive)
[20]
  GI50: > 100 µM (inactive)

## OCC(O)COc1ccc(F)cc1 (centres undefined)
[2]
  GI50: > 100 µM (inactive)
[4]
  GI50: > 100 µM (inactive)
[17]
  GI50: > 100 µM (inactive)
[5]
  GI50: > 100 µM (inactive)
[6]
  GI50: > 100 µM (inactive)
[7]
  GI50: > 100 µM (inactive)
[8]
  GI50: > 100 µM (inactive)
[9]
  GI50: > 100 µM (inactive)
[10]
  GI50: > 100 µM (inactive)
[11]
  GI50: > 100 µM (inactive)
[12]
  GI50: > 100 µM (inactive)
[13]
  GI50: > 100 µM (inactive)
[18]
  GI50: > 100 µM (inactive)
[15]
  GI50: > 100 µM
[16]
  GI50: > 100 µM (inactive)
[20]
  GI50: > 100 µM (inactive)
